In data set [1] the test system is Pseudomonas aeruginosa. The data set is described as follows: Antibacterial activity against Pseudomonas aeruginosa DM23155 after 24 hrs by broth microdilution method. It counts as functional. As to conditions: DM23155, 24 h. (In general: Dilution methods test growth across graded concentrations, often in twofold steps.)
The subject of data set [2] is Klebsiella pneumoniae. The data set can be described thus: Antibacterial activity against Klebsiella pneumoniae DM4299 after 24 hrs by broth microdilution method. It counts as functional. As to conditions: DM4299, 24 h.
Data set [3] deals with Pseudomonas aeruginosa. The data set can be described thus: Induction of cytoplasmic membrane disruption in Pseudomonas aeruginosa DM23155 assessed as membrane integrity at 1 to 2 times MIC after 1 hr by fluorescence assay. It counts as functional.
Data set [4] has as its system Lipopolysaccharide (LPS). The data set is described as follows: Induction of Escherichia coli 0111:B4 LPS neutralization using p-nitroaniline assessed as concentration required to neutralize 50% after 1 hr by limulus amebocyte lysate assay.
For data set [5], the system named is Escherichia coli. The data set is described as follows: Antibacterial activity against Escherichia coli ATCC 25922 after 24 hrs by broth microdilution method. It counts as functional. The conditions noted are these: ATCC 25922, 24 h.
Data set [6] in a line: Toxicity in New Zealand white rabbit erythrocytes assessed as hemolytic activity after 60 mins. The conditions noted are these: erythrocyte, 1 h. It is filed as cell-based, Oryctolagus cuniculus.
The test system of data set [7] is Lipopolysaccharide (LPS). The data set is described as follows: Displacement of dansylcadaverine from Escherichia coli 0111:B4 LPS at 15 to 30 uM after 5 mins by high-throughput fluorescence displacement assay.
The nature of data set [8]: Induction of calcein leakage from DOPE/DOPG artificial membrane at 1:32 ratio of compound to lipid by fluorescence assay. It counts as physicochemical.
Data set [9] concerns Klebsiella pneumoniae. The data set can be described thus: Antibacterial activity against Klebsiella pneumoniae DB55301 after 24 hrs by broth microdilution method. It is filed as functional.
Data set [10] relates to Klebsiella pneumoniae. The data set can be described thus: Antibacterial activity against Klebsiella pneumoniae DS07955 after 24 hrs by broth microdilution method. It is filed as functional.
Data set [11] concerns Klebsiella pneumoniae. The data set can be described thus: Antibacterial activity against Klebsiella pneumoniae DU31158 after 24 hrs by broth microdilution method. It is filed as functional.
For data set [12], the system named is Escherichia coli. The data set is described as follows: Antibacterial activity against Escherichia coli DS17232 after 24 hrs by broth microdilution method. It counts as functional.
The test system of data set [13] is Klebsiella pneumoniae. The data set can be described thus: Antibacterial activity against Klebsiella pneumoniae DS16260 after 24 hrs by broth microdilution method. It is filed as functional.
In data set [14] the test system is Escherichia coli. The data set is described as follows: Antibacterial activity against Escherichia coli DM17528 after 24 hrs by broth microdilution method. It counts as functional.
In data set [15] the test system is Pseudomonas aeruginosa. The data set is described as follows: Antibacterial activity against Pseudomonas aeruginosa DM4150R after 24 hrs by broth microdilution method. It counts as functional.
In data set [16] the test system is Pseudomonas aeruginosa. The data set is described as follows: Antibacterial activity against Pseudomonas aeruginosa DR4877 after 24 hrs by broth microdilution method. It counts as functional.
Data set [17] has as its system Pseudomonas aeruginosa. The data set is described as follows: Antibacterial activity against Pseudomonas aeruginosa ATCC 27853 after 24 hrs by broth microdilution method. It is filed as functional.
Data set [18] can be described thus: Induction of calcein leakage from DOPC artificial membrane at 1:32 ratio of compound to lipid by fluorescence assay. It is filed as physicochemical.
For data set [19], the system named is Pseudomonas aeruginosa. The data set can be described thus: Antibacterial activity against Pseudomonas aeruginosa DR18531 after 24 hrs by broth microdilution method. It counts as functional.
The subject of data set [20] is Pseudomonas aeruginosa. The data set is described as follows: Antibacterial activity against Pseudomonas aeruginosa ATCC 9027 after 24 hrs by broth microdilution method. It is filed as functional.
Data set [21] has as its system Pseudomonas aeruginosa. The data set is described as follows: Antibacterial activity against Pseudomonas aeruginosa DU14476 after 24 hrs by broth microdilution method. It is filed as functional.
Data set [22] has as its system Pseudomonas aeruginosa. The data set can be described thus: Antibacterial activity against Pseudomonas aeruginosa DR5790 after 24 hrs by broth microdilution method. It is filed as functional.
Data set [23] relates to Pseudomonas aeruginosa. The data set is described as follows: Antibacterial activity against Pseudomonas aeruginosa DM23257 after 24 hrs by broth microdilution method. It is filed as functional.
Data set [24] has as its system Pseudomonas aeruginosa. The data set is described as follows: Antibacterial activity against Pseudomonas aeruginosa DM23376 after 24 hrs by broth microdilution method. It is filed as functional.
The subject of data set [25] is Pseudomonas aeruginosa. The data set can be described thus: Induction of 1-N-phenylnaphthylamine uptake in Pseudomonas aeruginosa DM23155 at 400 uM after 1 hr by fluorescence assay relative to polymyxin B. It is filed as functional.
Data set [26] deals with Pseudomonas aeruginosa. The data set can be described thus: Induction of cytoplasmic membrane depolarization in Pseudomonas aeruginosa DM23155 at 4 times MIC after 1 hr by fluorescence assay. It counts as functional, organism-based.

Converted amounts (≈) assume the structure as drawn. The source made the active and inactive calls. The rule behind the calls is not given here. Bridge positions count the residues as written; N and C are the ends. Peptide text beside a SMILES is read from it. I, II: the chains in the order shown. * marks the point of attachment. Decanoyl = CCCCCCCCCC(=O)*; Octanoyl = CCCCCCCC(=O)* Bounds are passed on as bounds.

A word on the MIC: it is the lowest concentration that inhibits growth of the organism. Low readings indicate greater potency, high ones weaker potency. As usually defined, the EC50 is the concentration that produces a half-maximal response.

For `CC(=O)N[C@@H](CCCNC(=N)N)C(=O)NCC(=O)N[C@@H](CCCNC(=N)N)C(=O)N[C@@H](CCCCN)C(=O)N[C@H](C(=O)N[C@H](C(=O)N[C@@H](CCCNC(=N)N)C(=O)N[C@@H](CCCNC(=N)N)C(=O)NCCCC[C@H](NC(=O)[C@H](CCCNC(=N)N)NC(=O)[C@H](CCCNC(=N)N)NC(=O)[C@@H](NC(=O)[C@@H](NC(=O)[C@H](CCCCN)NC(=O)[C@H](CCCNC(=N)N)NC(=O)CNC(=O)[C@H](CCCNC(=N)N)NC(C)=O)C(C)C)C(C)C)C(=O)N[C@@H](CCCCN)C(=O)O)C(C)C)C(C)C` (I: Ac-RGRKVVRRKK-OH / II: Ac-RGRKVVRR; amide I:9-II:C), the MIC with Pseudomonas aeruginosa [1], against Klebsiella pneumoniae [2] and with Escherichia coli [5] was 6 µM (≈ 14.2 µg/mL) each time. Moreover, the Activity was above 80% with Pseudomonas aeruginosa [3], 75.7% in the data set with Lipopolysaccharide (LPS) [7] and “Active” in data set [8]. Besides, in the data set with Lipopolysaccharide (LPS) [4], the EC50 was above 1000 µM. Moreover, in data set [6], the HC10 is above 10000 µg/mL.

Consider `C[C@H]1COc2c(N3CCN(C)CC3)c(F)cc3c(=O)c(C(=O)O)cn1c23` [LEVOFLOXACIN], for which the MIC in the data set with Klebsiella pneumoniae [9] (DB55301, 24 h) is 80 µM (≈ 28.9 µg/mL); against Klebsiella pneumoniae [10] (DS07955, 24 h) it was above 100 µM; against Klebsiella pneumoniae [11] (DU31158, 24 h), 0.03 µM (≈ 0.0108 µg/mL); in the data set on Escherichia coli [12] (DS17232, 24 h), 20 µM (≈ 7.23 µg/mL); with Klebsiella pneumoniae [13] (DS16260, 24 h), 10 µM (≈ 3.61 µg/mL); in the data set on Escherichia coli [14] (DM17528, 24 h), 80 µM (≈ 28.9 µg/mL).

For the compound `CCCCCCCC(=O)N[C@@H](CCCNC(=N)N)C(=O)NCC(=O)N[C@@H](CCCNC(=N)N)C(=O)N[C@@H](CCCCN)C(=O)N[C@H](C(=O)N[C@H](C(=O)N[C@@H](CCCNC(=N)N)C(=O)N[C@@H](CCCNC(=N)N)C(=O)N[C@@H](CCCCN)C(=O)N[C@@H](CCCCN)C(=O)O)C(C)C)C(C)C` (Octanoyl-RGRKVVRRKK-OH), the results for the MIC against Pseudomonas aeruginosa [1], in the data set with Klebsiella pneumoniae [2] and against Escherichia coli [5] were 10 µM (≈ 14.1 µg/mL), above 80 µM and 6 µM (≈ 8.45 µg/mL), respectively. The EC50 in the data set with Lipopolysaccharide (LPS) [4] was above 1000 µM. The HC10 in data set [6] was above 10000 µg/mL. In the data set with Lipopolysaccharide (LPS) [7], this compound had an Activity of 69.9%.

Turning to `CCCCCCCCCC(=O)N[C@@H](CCCNC(=N)N)C(=O)NCC(=O)N[C@@H](CCCNC(=N)N)C(=O)N[C@@H](CCCCN)C(=O)NCC(=O)NCC(=O)N[C@@H](CCCNC(=N)N)C(=O)N[C@@H](CCCNC(=N)N)C(=O)NCCCC[C@H](NC(=O)[C@H](CCCNC(=N)N)NC(=O)[C@H](CCCNC(=N)N)NC(=O)CNC(=O)CNC(=O)[C@H](CCCCN)NC(=O)[C@H](CCCNC(=N)N)NC(=O)CNC(=O)[C@H](CCCNC(=N)N)NC(=O)CCCCCCCCC)C(=O)N[C@@H](CCCCN)C(=O)O` (I: Decanoyl-RGRKGGRRKK-OH / II: Decanoyl-RGRKGGRR; amide I:9-II:C), the MIC against Pseudomonas aeruginosa [1] came out at 3 µM (≈ 7.29 µg/mL); in the data set with Klebsiella pneumoniae [2], 3 µM (≈ 7.29 µg/mL); in the data set on Pseudomonas aeruginosa [15], 6 µM (≈ 14.6 µg/mL); against Pseudomonas aeruginosa [16] (DR4877, 24 h) it was 6 µM (≈ 14.6 µg/mL); in the data set on Pseudomonas aeruginosa [17] (ATCC 27853, 24 h) it was 3 µM (≈ 7.29 µg/mL); in the data set on Pseudomonas aeruginosa [19] (DR18531, 24 h), 6 µM (≈ 14.6 µg/mL). In addition, the MIC stood at 6 µM (≈ 14.6 µg/mL) against Pseudomonas aeruginosa [20] (ATCC 9027, 24 h); 6 µM (≈ 14.6 µg/mL) in the data set with Escherichia coli [5]; 3 µM (≈ 7.29 µg/mL) in the data set with Pseudomonas aeruginosa [21] (DU14476, 24 h); 3 µM (≈ 7.29 µg/mL) with Pseudomonas aeruginosa [22] (DR5790, 24 h); 6 µM (≈ 14.6 µg/mL) with Pseudomonas aeruginosa [23] (DM23257, 24 h); 6 µM (≈ 14.6 µg/mL) in the data set on Pseudomonas aeruginosa [24] (DM23376, 24 h). For the same compound, the Activity result in data set [18] was “Active”; in the data set with Lipopolysaccharide (LPS) [7], 122%; with Pseudomonas aeruginosa [25], 44.3%. In addition, the EC50 in the data set with Lipopolysaccharide (LPS) [4] worked out at 142 µM. For the same compound, the HC10 in [6] was above 10000 µg/mL.

Regarding `CCCCCCCC(=O)N[C@@H](CCCNC(=N)N)C(=O)NCC(=O)N[C@@H](CCCNC(=N)N)C(=O)N[C@@H](CCCCN)C(=O)NCC(=O)NCC(=O)N[C@@H](CCCNC(=N)N)C(=O)N[C@@H](CCCNC(=N)N)C(=O)N[C@@H](CCCCN)C(=O)N[C@@H](CCCCN)C(=O)O` (Octanoyl-RGRKGGRRKK-OH), the values for the MIC in the data set with Pseudomonas aeruginosa [1], in the data set with Klebsiella pneumoniae [2] and against Escherichia coli [5] were 10 µM (≈ 13.2 µg/mL), 40 µM (≈ 53 µg/mL) and 6 µM (≈ 7.95 µg/mL), respectively. In data set [6], the HC10 is above 10000 µg/mL. Moreover, in the data set with Pseudomonas aeruginosa [26], the result was Active.

On to GENTAMICIN, for which the MIC against Pseudomonas aeruginosa [15] was 0.5 µM; in the data set on Pseudomonas aeruginosa [16], above 60 µM; in the data set with Klebsiella pneumoniae [9], 7.5 µM; in the data set on Klebsiella pneumoniae [10], above 60 µM; in the data set on Pseudomonas aeruginosa [17], 0.5 µM; with Pseudomonas aeruginosa [19], 30 µM. Also, the MIC is 0.25 µM against Pseudomonas aeruginosa [20]; below 0.25 µM in the data set with Klebsiella pneumoniae [11]; 1 µM in the data set with Escherichia coli [12]; 25 µM against Pseudomonas aeruginosa [21]; 25 µM in the data set with Pseudomonas aeruginosa [22]; 2 µM against Klebsiella pneumoniae [13]. For the same compound, the MIC in the data set on Pseudomonas aeruginosa [23] was 0.5 µM; in the data set with Pseudomonas aeruginosa [24], 0.5 µM; in the data set on Escherichia coli [14], below 0.25 µM.

Source of the values: ChEMBL document CHEMBL3603789, “N-Lipidated Peptide Dimers: Effective Antibacterial Agents against Gram-Negative Pathogens through Lipopolysaccharide Permeabilization” (J Med Chem, 2015).
